What all share (type): biochemical
The target of assay [1] is MAGL (Homo sapiens (Human), UniProt Q99685). Nature of the assay: In vitro competitive activity-based protein profiling, human proteomes (prefrontal cortex or PC3 cell membrane fractions). Conditions: human proteome; for inhibition at 1 µM: read-out: MAGL % inh. 1 μM (human). An outline of the steps:
(§1)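 Activity of MAGL and FAAH was quantified from fluorescent gel band intensities. Beforehand, inhibitors at several concentrations competed against subsequent probe labelling (FP-Rh, JW912 or HT-01) in species-matched proteomes, each step 30 min at 37° C.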

The target of assay [2] is FAAH (Homo sapiens (Human), UniProt O00519). The assay is described as above. The conditions noted are these: human proteome; for inhibition at 1 µM: read-out: FAAH % inh. 1 μM (human). A digest of the protocol: as §1
Sequence of FAAH (Homo sapiens (Human), UniProt O00519) (O00519 whole entry): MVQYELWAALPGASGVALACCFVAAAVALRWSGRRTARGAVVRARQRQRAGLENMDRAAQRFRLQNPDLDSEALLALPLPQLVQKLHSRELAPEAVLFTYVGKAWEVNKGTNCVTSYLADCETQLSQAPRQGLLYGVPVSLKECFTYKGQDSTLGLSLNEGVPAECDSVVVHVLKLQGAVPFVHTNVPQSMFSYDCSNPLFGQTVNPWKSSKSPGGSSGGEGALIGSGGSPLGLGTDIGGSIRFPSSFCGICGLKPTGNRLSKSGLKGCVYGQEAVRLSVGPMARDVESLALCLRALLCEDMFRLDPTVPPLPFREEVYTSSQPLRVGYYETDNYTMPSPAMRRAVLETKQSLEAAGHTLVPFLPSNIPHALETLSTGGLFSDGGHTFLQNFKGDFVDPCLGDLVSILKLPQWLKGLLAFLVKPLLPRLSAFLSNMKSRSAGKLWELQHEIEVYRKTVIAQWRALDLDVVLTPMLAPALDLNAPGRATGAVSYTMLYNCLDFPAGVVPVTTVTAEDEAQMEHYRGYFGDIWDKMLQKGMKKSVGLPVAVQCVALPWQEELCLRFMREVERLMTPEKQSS
Assay [3] deals with MAGL (Mus musculus (Mouse), UniProt O35678). Briefly: In vitro competitive activity-based protein profiling, mouse proteomes (brain membrane fraction or cell lysates). The conditions noted are these: mouse proteome, read-out: MAGL % inh. 1 μM (mouse). A digest of the protocol:
as §1

Assay [4] deals with FAAH (Mus musculus (Mouse), UniProt O08914). The assay is described as above. Conditions: mouse proteome, read-out: FAAH % inh. 1 μM (mouse). An outline of the steps: as §1
Sequence of FAAH (Mus musculus (Mouse), UniProt O08914) (O08914 whole entry): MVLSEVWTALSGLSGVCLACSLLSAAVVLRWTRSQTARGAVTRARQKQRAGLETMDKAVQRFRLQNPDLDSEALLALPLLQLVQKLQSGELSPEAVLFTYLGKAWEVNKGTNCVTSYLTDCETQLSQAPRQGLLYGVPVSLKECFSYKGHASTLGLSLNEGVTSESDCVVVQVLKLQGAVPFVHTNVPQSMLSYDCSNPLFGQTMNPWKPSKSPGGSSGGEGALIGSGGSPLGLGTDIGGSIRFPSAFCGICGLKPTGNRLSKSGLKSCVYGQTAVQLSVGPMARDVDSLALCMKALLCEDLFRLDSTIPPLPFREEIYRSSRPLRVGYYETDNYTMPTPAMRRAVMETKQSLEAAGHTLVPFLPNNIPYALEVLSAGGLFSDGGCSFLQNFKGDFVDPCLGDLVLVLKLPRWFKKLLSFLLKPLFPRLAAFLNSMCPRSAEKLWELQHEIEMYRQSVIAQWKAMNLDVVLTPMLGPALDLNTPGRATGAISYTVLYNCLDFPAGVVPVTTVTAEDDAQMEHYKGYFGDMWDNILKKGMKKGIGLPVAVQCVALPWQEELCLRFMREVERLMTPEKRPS

Where only a bound is given, the exact number is not on record here.

As a reminder, the IC50 is the concentration that gives 50% inhibition.

Sequence of MAGL (Homo sapiens (Human), UniProt Q99685) (Q99685 whole entry): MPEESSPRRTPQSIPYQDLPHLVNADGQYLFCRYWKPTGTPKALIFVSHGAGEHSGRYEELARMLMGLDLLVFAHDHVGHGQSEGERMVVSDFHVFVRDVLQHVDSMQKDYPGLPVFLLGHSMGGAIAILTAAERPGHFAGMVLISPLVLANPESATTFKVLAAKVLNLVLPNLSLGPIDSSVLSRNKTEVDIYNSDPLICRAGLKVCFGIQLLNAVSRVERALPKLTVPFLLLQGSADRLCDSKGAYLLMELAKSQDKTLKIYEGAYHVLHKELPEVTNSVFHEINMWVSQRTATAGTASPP
Sequence of MAGL (Mus musculus (Mouse), UniProt O35678) (O35678 whole entry): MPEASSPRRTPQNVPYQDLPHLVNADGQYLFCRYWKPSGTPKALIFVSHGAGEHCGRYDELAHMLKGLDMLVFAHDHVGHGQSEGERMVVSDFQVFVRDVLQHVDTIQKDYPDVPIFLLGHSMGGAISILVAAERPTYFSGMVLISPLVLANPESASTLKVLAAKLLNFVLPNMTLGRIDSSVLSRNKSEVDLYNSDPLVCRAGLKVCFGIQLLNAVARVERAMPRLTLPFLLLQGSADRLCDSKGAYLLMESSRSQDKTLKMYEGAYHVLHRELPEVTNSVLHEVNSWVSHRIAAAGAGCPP

For the molecule `CS(=O)(=O)Nc1ccn(C(=O)N2CCC(Oc3ccc(C(F)(F)F)cc3C(=O)N3CCCC3)CC2)n1` [Example 101, N-(1-(4-(2-(Pyrrolidine-1-carbonyl)-4-(trifluoromethyl)phenoxy)piperidine-1-carbonyl)-1H-pyrazol-3-yl)methanesulfonamide], the inhibition at 1 µM on MAGL [1] is above 75%; on FAAH [2], 0 to 25%; on MAGL [3], 50 to 75%; on FAAH [4], 0 to 25%.
Turning to `CN(Cc1ccc(C(F)(F)F)cc1NCC(=O)O)C1(C)CCN(C(=O)n2ccc(NS(C)(=O)=O)n2)CC1` [Example 102, (2-((Methyl(4-methyl-1-(3-(methylsulfonamido)-1H-pyrazole-1-carbonyl)piperidin-4-yl)amino)methyl)-5-(trifluoromethyl)phenyl)glycine], the inhibition at 1 µM at MAGL [1] lay within 50 to 75%; on FAAH [2] it was 0 to 25%; at MAGL [3], 0 to 25%; at FAAH [4], 0 to 25%.
For the molecule `CC(=O)Nc1ccn(C(=O)N2CCC3(CCCN3Cc3ccc(Cl)cc3OCCCC(=O)O)CC2)n1` [Example 105, 4-(2-((8-(3-Acetamido-1H-pyrazole-1-carbonyl)-1,8-diazaspiro[4.5]decan-1-yl)methyl)-5-chlorophenoxy)butanoic acid], the inhibition at 1 µM on MAGL [1] was above 75%; at FAAH [2], 0 to 25%; at MAGL [3] it was above 75%; on FAAH [4] it was 0 to 25%.
Regarding `CS(=O)(=O)Nc1ccn(C(=O)N2CCN(Cc3cc4cc(F)ccc4[nH]3)CC2)n1` [Example 107, N-(1-(4-((5-Fluoro-1H-indol-2-yl)methyl)piperazine-1-carbonyl)-1H-pyrazol-3-yl)methanesulfonamide], the inhibition at 1 µM on MAGL [1] was above 75%; on FAAH [2], 0 to 25%; on MAGL [3], above 75%; at FAAH [4], 0 to 25%.
On to `CS(=O)(=O)Nc1ccn(C(=O)N2CCC(Oc3ccc(C(F)(F)F)c(N4CCC(F)CC4)c3)CC2)n1` [Example 109, N-(1-(4-(3-(4-Fluoropiperidin-1-yl)-4-(trifluoromethyl)phenoxy)piperidine-1-carbonyl)-1H-pyrazol-3-yl)methanesulfonamide], for which the inhibition at 1 µM on MAGL [1] was above 75%; at FAAH [2], 0 to 25%; at MAGL [3], above 75%; at FAAH [4], 0 to 25%.
With `CS(=O)(=O)Nc1ccn(C(=O)N2CCC(Oc3ccc(C(F)(F)F)c(OC4CCCC4)c3)CC2)n1` [Example 110, N-(1-(4-(3-(Cyclopentyloxy)-4-(trifluoromethyl)phenoxy)piperidine-1-carbonyl)-1H-pyrazol-3-yl)methanesulfonamide], the inhibition at 1 µM was above 75% at MAGL [1], 0 to 25% at FAAH [2], above 75% on MAGL [3] and 0 to 25% on FAAH [4].
Regarding `CS(=O)(=O)Nc1ccn(C(=O)N2CCN(Cc3ccc(Cl)c(OC4CCCC4)c3)CC2)n1` [Example 111, N-(1-(4-(4-Chloro-3-(cyclopentyloxy)benzyl)piperazine-1-carbonyl)-1H-pyrazol-3-yl)methanesulfonamide], the inhibition at 1 µM on MAGL [1] was above 75%; on FAAH [2], 0 to 25%; on MAGL [3], above 75%; on FAAH [4], 0 to 25%.
For `CC(=O)Nc1ccn(C(=O)N2CC3CN(Cc4cccc(OC(F)(F)F)c4)CC3C2)n1` (centres unmarked) [Example 113, N-(1-(5-(3-(Trifluoromethoxy)benzyl)octahydropyrrolo[3,4-c]pyrrole-2-carbonyl)-1H-pyrazol-3-yl)acetamide], the inhibition at 1 µM is above 75% at MAGL [1], 25 to 50% at FAAH [2], above 75% on MAGL [3] and above 75% on FAAH [4].
Turning to `CS(=O)(=O)Nc1ccn(C(=O)N2CC3CN(Cc4cccc(C(F)(F)F)c4)CC3C2)n1` (centres unmarked) [Example 114, N-(1-(5-(3-(Trifluoromethyl)benzyl)octahydropyrrolo[3,4-c]pyrrole-2-carbonyl)-1H-pyrazol-3-yl)methanesulfonamide], the inhibition at 1 µM on MAGL [1] was above 75%; on FAAH [2], 25 to 50%; on MAGL [3] it was 25 to 50%; at FAAH [4], above 75%.
As for `CS(=O)(=O)Nc1ccn(C(=O)N2CC3CN(Cc4cccc(OC(F)(F)F)c4)CC3C2)n1` (centres unmarked) [Example 115, N-(1-(5-(3-(Trifluoromethoxy)benzyl)octahydropyrrolo[3,4-c]pyrrole-2-carbonyl)-1H-pyrazol-3-yl)methanesulfonamide], the inhibition at 1 µM on MAGL [1] was above 75%; on FAAH [2] it was 25 to 50%; at MAGL [3] it was 25 to 50%; on FAAH [4], above 75%.
Consider `CS(=O)(=O)Nc1ccn(C(=O)N2CCN(Cc3ccc(C(F)(F)F)c(-c4nnco4)c3)CC2)n1` [Example 116, N-(1-(4-(3-(1,3,4-Oxadiazol-2-yl)-4-(trifluoromethyl)benzyl)piperazine-1-carbonyl)-1H-pyrazol-3-yl)methanesulfonamide], for which the inhibition at 1 µM at MAGL [1] is above 75%; at FAAH [2] it was 0 to 25%; on MAGL [3], 50 to 75%; at FAAH [4] it was 0 to 25%.
As for `CS(=O)(=O)Nc1ccn(C(=O)N2CCN(Cc3ccc(C(F)(F)F)c(N4CC[C@@H](F)C4)c3)CC2)n1` [Example 120, (R)-N-(1-(4-(3-(3-Fluoropyrrolidin-1-yl)-4-(trifluoromethyl)benzyl)piperazine-1-carbonyl)-1H-pyrazol-3-yl)methanesulfonamide], the inhibition at 1 µM is above 75% on MAGL [1], 0 to 25% at FAAH [2], above 75% at MAGL [3] and 0 to 25% on FAAH [4].
Turning to `CC(=O)Nc1ccn(C(=O)N2CC3CN(Cc4ccc(N5CCCC5)cc4C(F)(F)F)CC3C2)n1` (centres unmarked) [Example 121, N-(1-(5-(4-(Pyrrolidin-1-yl)-2-(trifluoromethyl)benzyl)octahydropyrrolo[3,4-c]pyrrole-2-carbonyl)-1H-pyrazol-3-yl)acetamide], the inhibition at 1 µM at MAGL [1], at FAAH [2], on MAGL [3] and on FAAH [4] was above 75% in each case. Further, the IC50 on MAGL [1] was below 0.1 µM; at FAAH [2], 0.1 to 1 µM.
With `CS(=O)(=O)Nc1ccn(C(=O)N2CCN(Cc3ccc(Cl)c(N4CC[C@@H](F)C4)c3)CC2)n1` [Example 122, (R)-N-(1-(4-(4-Chloro-3-(3-fluoropyrrolidin-1-yl)benzyl)piperazine-1-carbonyl)-1H-pyrazol-3-yl)methanesulfonamide], the inhibition at 1 µM at MAGL [1] is above 75%; at FAAH [2], 0 to 25%; on MAGL [3], above 75%; on FAAH [4], 0 to 25%.
For `CC(=O)Nc1ccn(C(=O)N2CCN(Cc3ccc(C(N)=O)c(C(F)(F)F)c3)CC2)n1` [Example 123, 4-((4-(3-Acetamido-1H-pyrazole-1-carbonyl)piperazin-1-yl)methyl)-2-(trifluoromethyl)benzamide], the inhibition at 1 µM was above 75% on MAGL [1], 0 to 25% at FAAH [2], above 75% at MAGL [3] and 0 to 25% on FAAH [4].
In the case of `CC(=O)Nc1ccn(C(=O)N2CC3CN(Cc4ccc(C(N)=O)c(C(F)(F)F)c4)CC3C2)n1` (centres unmarked) [Example 124, 4-((5-(3-Acetamido-1H-pyrazole-1-carbonyl)hexahydropyrrolo[3,4-c]pyrrol-2(1H)-yl)methyl)-2-(trifluoromethyl)benzamide], the inhibition at 1 µM is above 75% at MAGL [1], 0 to 25% on FAAH [2], above 75% at MAGL [3] and 0 to 25% at FAAH [4].
In the case of `CC(=O)Nc1ccn(C(=O)N2CCC3(CC2)CN(Cc2ccc(C(N)=O)c(C(F)(F)F)c2)C3)n1` [Example 126, 4-((7-(3-Acetamido-1H-pyrazole-1-carbonyl)-2,7-diazaspiro[3.5]nonan-2-yl)methyl)-2-(trifluoromethyl)benzamide], the inhibition at 1 µM at MAGL [1] was above 75%; on FAAH [2], 0 to 25%; at MAGL [3], above 75%; at FAAH [4] it was 0 to 25%.
Turning to `CC(=O)Nc1ccn(C(=O)N2CCN(Cc3cccc(C(F)(F)F)c3)CC2)n1` [Example 127, N-(1-(4-(3-(Trifluoromethyl)benzyl)piperazine-1-carbonyl)-1H-pyrazol-3-yl)acetamide], the inhibition at 1 µM at MAGL [1] is above 75%; on FAAH [2], 0 to 25%; at MAGL [3], above 75%; at FAAH [4], 0 to 25%.
With `CC(=O)Nc1ccn(C(=O)N2CCN(Cc3cccc(OC(F)(F)F)c3)CC2)n1` [Example 128, N-(1-(4-(3-(Trifluoromethoxy)benzyl)piperazine-1-carbonyl)-1H-pyrazol-3-yl)acetamide], the inhibition at 1 µM is above 75% at MAGL [1], 0 to 25% on FAAH [2], above 75% on MAGL [3] and 0 to 25% at FAAH [4].
`CC(=O)Nc1ccn(C(=O)N2CCN(Cc3cccc(C(F)(F)F)c3C)CC2)n1` [Example 129, N-(1-(4-(2-Methyl-3-(trifluoromethyl)benzyl)piperazine-1-carbonyl)-1H-pyrazol-3-yl)acetamide]: the inhibition at 1 µM on MAGL [1] was above 75%; at FAAH [2], 0 to 25%; at MAGL [3], above 75%; on FAAH [4] it was 0 to 25%.
For `CC(=O)Nc1ccn(C(=O)N2CCC(C)(N(C)Cc3ccc(C(N)=O)c(C(F)(F)F)c3)CC2)n1` [Example 130, 4-(((1-(3-Acetamido-1H-pyrazole-1-carbonyl)-4-methylpiperidin-4-yl)(methyl)amino)methyl)-2-(trifluoromethyl)benzamide], the inhibition at 1 µM on MAGL [1] is above 75%; at FAAH [2] it was 0 to 25%; at MAGL [3], above 75%; on FAAH [4], 0 to 25%.

The values are drawn from patent publication US11149037B2, “Pyrazole MAGL inhibitors” (H. Lundbeck A/S, priority 2017, dated 2021).
